This is an account of results in US7361658B2, “2-acylaminothiazole derivative or salt thereof” (Astellas Pharma Inc., priority 2003, dated 2008).

Experiment [1] has as its target T1, human c-mpl-Ba/F3 cells (Homo sapiens, UniProt P40238).
T1 construct: expressed in transfected cells; host or cells: Ba/F3 (murine pro-B cells) expressing human c-mpl
T1 sequence (P40238 26-635): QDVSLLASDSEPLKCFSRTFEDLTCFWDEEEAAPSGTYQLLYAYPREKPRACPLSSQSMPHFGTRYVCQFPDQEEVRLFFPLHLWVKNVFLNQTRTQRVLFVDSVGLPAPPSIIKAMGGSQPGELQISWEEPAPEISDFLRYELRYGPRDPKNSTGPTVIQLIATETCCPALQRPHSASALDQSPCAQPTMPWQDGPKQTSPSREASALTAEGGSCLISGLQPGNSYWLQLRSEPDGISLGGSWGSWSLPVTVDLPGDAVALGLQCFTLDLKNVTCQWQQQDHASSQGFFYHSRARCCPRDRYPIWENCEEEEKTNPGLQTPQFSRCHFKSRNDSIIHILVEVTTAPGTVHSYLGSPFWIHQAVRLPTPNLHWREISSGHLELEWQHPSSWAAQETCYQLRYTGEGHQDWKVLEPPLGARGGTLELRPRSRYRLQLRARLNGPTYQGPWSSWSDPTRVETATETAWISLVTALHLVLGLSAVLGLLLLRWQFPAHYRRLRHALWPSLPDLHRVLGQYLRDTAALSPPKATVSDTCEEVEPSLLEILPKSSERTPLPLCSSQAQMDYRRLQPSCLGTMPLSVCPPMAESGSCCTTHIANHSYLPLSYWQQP
The experiment can be described thus: Human c-mpl-Ba/F3 cell growth test. The conditions noted are these: for Pot: concentration at which cell growth is accelerated by 30% of the maximum cell growth activity of compound A, 24 h culture; for Emax: maximum cell growth activity, maximum of compound A defined as 100%, read-out: Efficacy. The class given is cell-based. As for the experimental part:
(i) Human c-mpl-Ba/F3 Cell Growth Test
In a 96-well microplate, 2×10^5 cells/ml of human c-mpl-Ba/F3 cells were cultured at 37° C. in 10% fetal bovine serum-containing RPMI1640 medium (100 μl/well) containing each test compound at each concentration. After 24 hours from the start-up of culture, 10 μl/well of WST-1/1-methoxy PMS (cell counting kit, Dojin) was added. Immediately after addition and 2 hours after addition, absorbance of A450/A650 was measured with a microplate reader (Model 3350: Bio-Rad), and an increase in absorbance for 2 hours was defined as a growth activity of each test compound.
pot: Concentration of each test compound at which to accelerate cell growth by 30% of a maximum cell growth activity of compound A (compound A and rhTPO in rhTPO)
Efficacy: Maximum cell growth activity of each test compound when a maximum cell growth activity of compound A (compound A and rhTPO in rhTPO) is defined as 100%.
Compound A refers to a compound in Example 9 of the foregoing Patent Document 10.

Another experiment relates to Human CD34+ cells. The experiment can be described thus: Test for measuring a function of accelerating formation of megakaryocytic colonies. Conditions: megakaryocytic colony formation, 10 to 14 days, MegaCult-C. The class given is cell-based. Here is the method: (ii) Test for Measuring a Function of Accelerating Formation of Megakaryocytic Colonies
Human CD34^+ cells were cultured in a 2-well chamber slide in the presence of a test product at 37° C. for from 10 to 14 days using MegaCult™-C (StemCell Technologies). After dehydration and fixation were conducted according to the attached manual, dying was conducted with an anti-glycoprotein IIb/IIIa antibody. The number of colonies for 1 well was counted by a microscope on condition that a population of 3 or more dyed megakaryocytes was one colony. An EC30 value of each test compound was calculated from a dose curve.

Experiment [2] deals with T1, human c-mpl-Ba/F3 cells. Put plainly: Mouse oral administration test: human c-mpl-Ba/F3 cell growth activity of a plasma after oral administration. It counts as in vivo. Conditions: male ICR mouse, plasma 2 h after administration, maximum activity of each test compound = 100%. As for the experimental part:
(iii) Mouse Oral Administration Test
3 mg/kg or 10 mg/kg (100 mg/kg in Comparative Compounds 1 to 3) of a test compound dissolved or suspended in a 0.5% methylcellulose aqueous solution was orally administered to a male ICR mouse. After 2 hours from administration, a blood was sampled from the subabdominal large vein using 1/10-volume 3.8% sodium citrate as an anticoagulant. Centrifugation was performed at 12,000 rpm for 3 minutes. The resulting plasma was heated at 56° C. for 30 minutes, and added to a system of the human c-mpl-Ba/F3 cell growth test described in (i) such that the final concentration of the plasma reached 0.3%, 1% or 3% (10% in Comparative Compounds 1 to 3) to measure a cell growth activity. The cell growth activity (%) of each plasma was measured when the maximum cell growth activity of each test compound was defined as 100%.

The mark [3] stands for this setting: 10 mg/kg p.o., dilution rate 3%.

Structures are written as SMILES.

Regarding `CCCCN(C)Cc1sc(NC(=O)c2cnc(N3CCC(C(=O)O)CC3)c(Cl)c2)nc1-c1cc(Cl)cs1` [Example 71, 1-(5-{[5-{[butyl(methyl)amino]methyl}-4-(4-chlorothiophen-2-yl)thiazol-2-yl]carbamoyl}-3-chloro-2-pyridyl)piperidin-4-carboxylic acid], at human c-mpl-Ba/F3 cells [1], the Pot was 2.0 nM and the Emax is 110%. This molecule also registered an EC30 value in the experiment with Human CD34+ cells of 20 nM. In addition, at human c-mpl-Ba/F3 cells [2] (3 mg/kg p.o., dilution rate 3%), the Cell growth activity entry is given as “≧80%”.

On to `CN(Cc1sc(NC(=O)c2cnc(N3CCC(C(=O)O)CC3)c(Cl)c2)nc1-c1cc(Cl)cs1)C1CCC1` [Example 100, 1-{3-chloro-5-[(4-(4-chlorothiophen-2-yl)-5-{[cyclobutyl(methyl)amino]methyl}thiazol-2-yl)carbamoyl]-2-pyridyl}piperidine-4-carboxylic acid], for which, on human c-mpl-Ba/F3 cells [1], the Pot came out at 2.9 nM and the Emax came out at 117%. In addition, the EC30 value with Human CD34+ cells came to 34 nM. In addition, the Cell growth activity result on human c-mpl-Ba/F3 cells [2] (3 mg/kg p.o., dilution rate 3%) was “≧80%”.

On to `CC(C)N(C)Cc1sc(NC(=O)c2cnc(N3CCC(C(=O)O)CC3)c(Cl)c2)nc1-c1cc(Cl)cs1` [Example 104, 1-{3-chloro-5-[(4-(4-chlorothiophen-2-yl)-5-{[isopropyl(methyl)amino]methyl}thiazol-2-yl)carbamoyl]-2-pyridyl}piperidine-4-carboxylic acid], for which, on human c-mpl-Ba/F3 cells [1], the Pot is on record as 3.5 nM and the Emax came to 105%. For the same molecule, in the experiment with Human CD34+ cells, the EC30 value came out at 36 nM. On human c-mpl-Ba/F3 cells [2] (3 mg/kg p.o., dilution rate 1%), this molecule registered a Cell growth activity of 63%.

On to `C[C@H]1CCCN1Cc1sc(NC(=O)c2cnc(N3CCC(C(=O)O)CC3)c(Cl)c2)nc1-c1cc(Cl)cs1` [Example 106, 1-{3-chloro-5-[(4-(4-chlorothiophen-2-yl)-5-{[(2S)-2-methylpyrrolidin-1-yl]methyl}thiazol-2-yl)carbamoyl]-2-pyridyl}piperidine-4-carboxylic acid], for which, on human c-mpl-Ba/F3 cells [1], the Pot is 2.1 nM and the Emax came to 112%. Also, the EC30 value in the experiment on Human CD34+ cells is reported as 23 nM. At human c-mpl-Ba/F3 cells [2] (3 mg/kg p.o., dilution rate 1%), the Cell growth activity turned out to be 63%.

`CCCCN(C)Cc1sc(NC(=O)c2cnc(NCCCO)c(Cl)c2)nc1-c1cc(Cl)cs1` [Example 151, N-[5-{[butyl(methyl)amino]methyl}-4-(4-chlorothiophen-2-yl)thiazol-2-yl]-5-chloro-6-[(3-hydroxypropyl)amino]nicotinamide]: on human c-mpl-Ba/F3 cells [1], the Pot amounted to 8.4 nM and the Emax was found to be 99%. The molecule also gave a Cell growth activity on human c-mpl-Ba/F3 cells [2] (setting [3]) of 24%.

Take `CCCCN(C)Cc1sc(NC(=O)c2cnc(N3CCNC(=O)C3)c(Cl)c2)nc1-c1cc(Cl)cs1` [Example 153, N-[5-{[butyl(methyl)amino]methyl}-4-(4-chlorothiophen-2-yl)thiazol-2-yl]-5-chloro-6-(3-oxopiperazin-1-yl)nicotinamide]: at human c-mpl-Ba/F3 cells [1], the Pot was found to be 6.1 nM and the Emax amounted to 99%. Moreover, the Cell growth activity at human c-mpl-Ba/F3 cells [2] (setting [3]) is given as 29%.

With `C[C@@H]1CCCN1Cc1sc(NC(=O)c2cnc(N3CCC(C(=O)O)CC3)c(F)c2)nc1-c1cc(Cl)cs1` [Example 315, 1-{5-[(4-(4-chlorothiophen-2-yl)-5-{[(2R)-2-methylpyrrolidin-1-yl]methyl}thiazol-2-yl)carbamoyl]-3-fluoro-2-pyridyl}piperidin-4-carboxylic acid], at human c-mpl-Ba/F3 cells [1], the Pot stood at 3.2 nM and the Emax was determined as 98%. Also, the EC30 value in the experiment with Human CD34+ cells was 45 nM.
